Reference: patent US20160228584A1, “18F -GLUTATHIONE CONJUGATE AS A PET TRACER FOR IMAGING TUMORS OR NEUROLOGICAL DISORDERS THAT OVEREXPRESS L-PGDS ENZYME” (National Tsing Hua University, priority 2015, published 2016)

Columns and labels:
[1] = biological target: T1, L-PGDS (Homo sapiens, UniProt P41222); experiment: Competitive inhibition of the production of PGD2 from PGH2 catalysed by L-PGDS (Cayman kit, EIA readout); format: biochemical; settings: 200 μM of each test compound; duplicate; read-out: inhibition of the formation of PGD2 from PGH2
T1 construct: purchased Cayman 10006595
T1 sequence (P41222 23-190): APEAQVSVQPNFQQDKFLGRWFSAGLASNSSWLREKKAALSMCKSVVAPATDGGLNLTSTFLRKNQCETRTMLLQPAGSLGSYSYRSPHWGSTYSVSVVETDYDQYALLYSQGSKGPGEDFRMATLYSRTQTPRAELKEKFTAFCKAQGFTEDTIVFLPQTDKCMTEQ

[2] = biological target: T2, GST-α (Homo sapiens, UniProt P08263); experiment: Radioligand enzymatic binding assay (gel filtration HPLC); settings: GSTA1-1
T2 construct: purchased Pro SpecTany Techno Gene Ltd ENZ-469
T2 sequence (P08263 1-222): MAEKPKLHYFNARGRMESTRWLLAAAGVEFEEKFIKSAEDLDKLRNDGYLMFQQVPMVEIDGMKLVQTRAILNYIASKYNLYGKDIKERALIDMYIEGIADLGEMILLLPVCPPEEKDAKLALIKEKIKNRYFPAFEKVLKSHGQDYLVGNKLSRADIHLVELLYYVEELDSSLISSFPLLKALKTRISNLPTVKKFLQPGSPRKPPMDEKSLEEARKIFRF
Method: (§1) The flow rate was 1 mL/min.
(§2) L-PGDS catalyzes the […] of prostaglandin H2 (PGH2), a metabolite (also known as a prostanoid) derived from arachidonic acid (AA) through oxidation and reduction via the catalysis of COX enzymes. For comparison, mPGES-1, the counterpart of L-PGDS that catalyzes the formation of PGE2 from COX-derived PGH2, was also used in this study. […] Thus, GST-P1 and GST-A1-1 enzymes were only used as negative controls.

[3] = biological target: GST-π (Homo sapiens, UniProt P09211); experiment: as above; settings: GSTP1
Method: as §1, §2

[4] = biological target: T3, m-PGES (Homo sapiens, UniProt O14684); experiment: as above; settings: mPGES-1
T3 construct: purchased Cayman Chemical Inc
T3 sequence (O14684 1-152): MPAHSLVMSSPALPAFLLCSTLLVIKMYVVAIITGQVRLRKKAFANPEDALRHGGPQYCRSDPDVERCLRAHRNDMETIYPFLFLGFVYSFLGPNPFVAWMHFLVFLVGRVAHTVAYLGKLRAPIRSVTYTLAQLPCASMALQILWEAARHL
Method: as §1, §2

[5] = tested on: C6 glioma; experiment: Cellular uptake of radiotracer in tumor cells; format: cell-based
Method: The time point of addition of radio tracer was staggered such that every group could be harvested concurrently. At various times of 0.25, 0.5, 1.5, 3 and 5 h, the collection of the medium was progressing. During harvesting, the radioactive medium was collected from each of the wells, followed by rinsing with PBS […] twice. The medium and rinses (1.5 mL) were combined for counting; the counts were treated as extracellular radioactivity. Subsequently, the cells were lysed with 0.25% trypsin-EDTA ([…]) and the wells were rinsed with PBS twice. Both cells and rinses (1.5 mL) were combined for counting; the counts were treated as intracellular radioactivity. Radioactivity was measured using a scintillation gamma counter (Packard 5000, Packard Instrument Co. laboratory) and decay was corrected. Samples were performed triplicated at each time point for all uptake studies.
The uptake ratio was calculated according to the following expression:
Uptake ratio(%)=Countintracellular=Countextracellular+Countintracellular)×100%

[6] = Ex vivo analysis of biodistribution; format: in vivo; settings: rat
From the text: The specimens included 1) organ tissues such as brain, liver, spleen, heart, kidney, lung, colon, small bowel, stomach, testes, skull, and muscle, and 2) body fluids such as blood and urine. These specimens were submitted for counting the radioactivity using a solid scintillation gamma counter (Packard 5000, Packard Instrument Co. laboratory). The counting value of each specimen was further divided by the sample weight to give the final expression as percentage of injection dose per sample weight (% ID/g).

[7] = tested on: C6 glioma brain tumor; experiment: PET imaging of C6-glioma rat brain tumor; format: in vivo; settings: tail vein injection, three cross sections
Method: All studies involving animals were conducted in compliance with federal and institutional guidelines. Two weeks before imaging, healthy male SD rats were stereotactically inoculated in the right hemisphere with 1.0×10^5 C6 glioma cells (American Type Tissue Collection).
After C6 glioma cells were injected into the striatum of the SD rats, the animals were placed on heating pad until they have entirely recovered. When the xenografted tumor size has grown to a size of 1-2 mm in diameter, the animals were transferred to the animal facility under control by the research staff every morning. […] Prior to imaging, all rats were affixed with venous and arterial catheters. The in vivo xenograft C6 glioma was imaged 2 weeks after transplantation procedure, until the volume of the tumor reached 3 mm-5 mm in diameter, well-demarcated from normal brain tissue. Regular oral feeding was proceeded after the animals were recovered from anesthesia.
PET scanning experiments were performed within 72 hours of MRI experiment that used to confirm a successful inoculation of tumors by administering [^18F] FBuEA-GS3 via tail vein injection. Both machines of microPET and nanoPET/CT were employed.
Data were collected in list-mode format for 120 minutes. For reconstruction, the dynamic PET acquisition was divided into six 20-min frames over the scanning duration. […]

O=c1ccn([C@@H]2O[C@H](CO)[C@@H](O)[C@H]2O)c(=O)[nH]1 [uridine]
inhibition at 200 µM [1]: 5.6 ± 14.3%

CCC(CSC[C@@H](NC(=O)CC[C@@H](N)C(=O)O)C(=O)NCC(=O)O)C(=O)c1ccc(OCC(=O)NCCCC[18F])c(Cl)c1Cl (stereo partly drawn) [[^18F]FBuEA-GS 3, glutathione conjugate of fluorine-18-labeled fluorobutyl ethacrynic amide]
binding affinity (in words) [2]: weak binding affinities | binding affinity (in words) [3]: weak binding affinities | binding affinity (in words) [4]: did not show any binding affinity | time to reach steady state of accumulation ([5]; cellular uptake): approximately 15 min | radioactivity in the brain ([6]; brain, 1.0-1.5 mCi injected): 0.05 % ID/g | distribution of radioactivity (in words) ([6]; fourteen tissue samples): mainly localized in the excretory system | PET imaging of brain tumor (in words) [7]: clear hot spot coinciding to the tumor region detected by MRI imaging

C=C(CC)C(=O)c1ccc(OCC(=O)NCCCC[18F])c(Cl)c1Cl [[^18F]FbuEA 2, fluorine-18-labeled fluorobutyl ethacrynic amide]
uptake in tumor cells versus normal cells (in words) ([5]; tumor cells compared to normal cell): lower uptake in tumor cells compared to normal cell
